Experimental data as given in ChEMBL document CHEMBL2401715, “Synthesis, antitumor and antibacterial activities of some novel tetrahydrobenzo[4,5]thieno[2,3-d]pyrimidine derivatives” (Eur J Med Chem, 2013).

Tested on: Pseudomonas aeruginosa
Assay: Antibacterial activity against Pseudomonas aeruginosa ATCC 10145 assessed as growth inhibition after 24 to 48 hrs by kirby-bauer disc diffusion method; further: test concentration or dose not given here
Assay type: functional
Conditions: not given

SMILES	diameter of the inhibition zone (DIZ) [mm]
O=C(O)C(Cc1ccccc1)n1c(/C=C/c2ccccc2)nc2sc3c(c2c1=O)CCCC3 (centres undefined)	14
O=C(O)C(Cc1cc2ccccc2[nH]1)n1c(/C=C/c2ccccc2)nc2sc3c(c2c1=O)CCCC3 (centres undefined)	0
O=C1NOCC1n1c(/C=C/c2ccccc2)nc2sc3c(c2c1=O)CCCC3 (centres undefined)	16
O=c1cc(-n2c(/C=C/c3ccccc3)nc3sc4c(c3c2=O)CCCC4)[nH]c(=O)[nH]1	15
O=c1c2c3c(sc2nc(/C=C/c2ccccc2)n1-c1nc2ccccc2s1)CCCC3	14
Cc1ccc2sc(-n3c(/C=C/c4ccccc4)nc4sc5c(c4c3=O)CCCC5)nc2c1	14
O=c1c2c3c(sc2nc(/C=C/c2ccccc2)n1-c1nc2cc([N+](=O)[O-])ccc2s1)CCCC3	15
O=c1[nH]c(/C=C/c2ccccc2)nc2sc3c(c12)CCCC3	0
O=c1[nH]c(/C=C/c2ccccc2[N+](=O)[O-])nc2sc3c(c12)CCCC3	0
C/C(=C\c1ccccc1)c1nc2sc3c(c2c(=O)[nH]1)CCCC3	0
COc1cc(-c2nc(NC(=O)NO)c3c4c(sc3n2)CCCC4)cc(OC)c1OC	0
O=C(NO)Nc1nc(/C=C/c2ccccc2)nc2sc3c(c12)CCCC3	12
Cc1c2ccc(N)cc2nc2cc(Nc3nc(/C=C/c4ccccc4)nc4sc5c(c34)CCCC5)ccc12	12

Tested on: Escherichia coli
Assay: Antibacterial activity against Escherichia coli ATCC 11775 assessed as growth inhibition after 24 to 48 hrs by kirby-bauer disc diffusion method; further: test concentration or dose not given here
Assay type: functional, DSM 30083 = JCM 1649
Conditions: not given

SMILES	diameter of the inhibition zone (DIZ) [mm]
O=C(O)C(Cc1ccccc1)n1c(/C=C/c2ccccc2)nc2sc3c(c2c1=O)CCCC3 (centres undefined)	14
O=C(O)C(Cc1cc2ccccc2[nH]1)n1c(/C=C/c2ccccc2)nc2sc3c(c2c1=O)CCCC3 (centres undefined)	0
O=C1NOCC1n1c(/C=C/c2ccccc2)nc2sc3c(c2c1=O)CCCC3 (centres undefined)	15
O=c1cc(-n2c(/C=C/c3ccccc3)nc3sc4c(c3c2=O)CCCC4)[nH]c(=O)[nH]1	15
O=c1c2c3c(sc2nc(/C=C/c2ccccc2)n1-c1nc2ccccc2s1)CCCC3	13
Cc1ccc2sc(-n3c(/C=C/c4ccccc4)nc4sc5c(c4c3=O)CCCC5)nc2c1	14
O=c1c2c3c(sc2nc(/C=C/c2ccccc2)n1-c1nc2cc([N+](=O)[O-])ccc2s1)CCCC3	14
O=c1[nH]c(/C=C/c2ccccc2)nc2sc3c(c12)CCCC3	0
O=c1[nH]c(/C=C/c2ccccc2[N+](=O)[O-])nc2sc3c(c12)CCCC3	10
C/C(=C\c1ccccc1)c1nc2sc3c(c2c(=O)[nH]1)CCCC3	0
COc1cc(-c2nc(NC(=O)NO)c3c4c(sc3n2)CCCC4)cc(OC)c1OC	0
O=C(NO)Nc1nc(/C=C/c2ccccc2)nc2sc3c(c12)CCCC3	10
Cc1c2ccc(N)cc2nc2cc(Nc3nc(/C=C/c4ccccc4)nc4sc5c(c34)CCCC5)ccc12	12

Tested on: Staphylococcus aureus
Assay: Antibacterial activity against Staphylococcus aureus ATCC 12600 assessed as growth inhibition after 24 to 48 hrs by kirby-bauer disc diffusion method; further: test concentration or dose not given here
Assay type: functional
Conditions: not given

SMILES	diameter of the inhibition zone (DIZ) [mm]
O=C(O)C(Cc1ccccc1)n1c(/C=C/c2ccccc2)nc2sc3c(c2c1=O)CCCC3 (centres undefined)	16
O=C(O)C(Cc1cc2ccccc2[nH]1)n1c(/C=C/c2ccccc2)nc2sc3c(c2c1=O)CCCC3 (centres undefined)	0
O=C1NOCC1n1c(/C=C/c2ccccc2)nc2sc3c(c2c1=O)CCCC3 (centres undefined)	19
O=c1cc(-n2c(/C=C/c3ccccc3)nc3sc4c(c3c2=O)CCCC4)[nH]c(=O)[nH]1	18
O=c1c2c3c(sc2nc(/C=C/c2ccccc2)n1-c1nc2ccccc2s1)CCCC3	16
Cc1ccc2sc(-n3c(/C=C/c4ccccc4)nc4sc5c(c4c3=O)CCCC5)nc2c1	16
O=c1c2c3c(sc2nc(/C=C/c2ccccc2)n1-c1nc2cc([N+](=O)[O-])ccc2s1)CCCC3	15
O=c1[nH]c(/C=C/c2ccccc2)nc2sc3c(c12)CCCC3	0
O=c1[nH]c(/C=C/c2ccccc2[N+](=O)[O-])nc2sc3c(c12)CCCC3	0
C/C(=C\c1ccccc1)c1nc2sc3c(c2c(=O)[nH]1)CCCC3	0
COc1cc(-c2nc(NC(=O)NO)c3c4c(sc3n2)CCCC4)cc(OC)c1OC	0
O=C(NO)Nc1nc(/C=C/c2ccccc2)nc2sc3c(c12)CCCC3	10
Cc1c2ccc(N)cc2nc2cc(Nc3nc(/C=C/c4ccccc4)nc4sc5c(c34)CCCC5)ccc12	21

Tested on: Bacillus subtilis
Assay: Antibacterial activity against Bacillus subtilis ATCC 6051 assessed as growth inhibition after 24 to 48 hrs by kirby-bauer disc diffusion method; further: test concentration or dose not given here
Assay type: functional
Conditions: not given

SMILES	diameter of the inhibition zone (DIZ) [mm]
O=C(O)C(Cc1ccccc1)n1c(/C=C/c2ccccc2)nc2sc3c(c2c1=O)CCCC3 (centres undefined)	13
O=C(O)C(Cc1cc2ccccc2[nH]1)n1c(/C=C/c2ccccc2)nc2sc3c(c2c1=O)CCCC3 (centres undefined)	0
O=C1NOCC1n1c(/C=C/c2ccccc2)nc2sc3c(c2c1=O)CCCC3 (centres undefined)	15
O=c1cc(-n2c(/C=C/c3ccccc3)nc3sc4c(c3c2=O)CCCC4)[nH]c(=O)[nH]1	16
O=c1c2c3c(sc2nc(/C=C/c2ccccc2)n1-c1nc2ccccc2s1)CCCC3	13
Cc1ccc2sc(-n3c(/C=C/c4ccccc4)nc4sc5c(c4c3=O)CCCC5)nc2c1	15
O=c1c2c3c(sc2nc(/C=C/c2ccccc2)n1-c1nc2cc([N+](=O)[O-])ccc2s1)CCCC3	14
O=c1[nH]c(/C=C/c2ccccc2)nc2sc3c(c12)CCCC3	0
O=c1[nH]c(/C=C/c2ccccc2[N+](=O)[O-])nc2sc3c(c12)CCCC3	0
C/C(=C\c1ccccc1)c1nc2sc3c(c2c(=O)[nH]1)CCCC3	0
COc1cc(-c2nc(NC(=O)NO)c3c4c(sc3n2)CCCC4)cc(OC)c1OC	0
O=C(NO)Nc1nc(/C=C/c2ccccc2)nc2sc3c(c12)CCCC3	11
Cc1c2ccc(N)cc2nc2cc(Nc3nc(/C=C/c4ccccc4)nc4sc5c(c34)CCCC5)ccc12	20

Tested on: HepG2
Assay: Cytotoxicity against human HepG2 cells assessed as cell survival after 48 hrs by SRB assay
Assay type: functional, cell-based
Conditions: HepG2, 48 h

SMILES	IC50 [µM]
O=C(O)C(Cc1ccccc1)n1c(/C=C/c2ccccc2)nc2sc3c(c2c1=O)CCCC3 (centres undefined)	31.5
O=C(O)C(Cc1cc2ccccc2[nH]1)n1c(/C=C/c2ccccc2)nc2sc3c(c2c1=O)CCCC3 (centres undefined)	29.7
O=C1NOCC1n1c(/C=C/c2ccccc2)nc2sc3c(c2c1=O)CCCC3 (centres undefined)	6.86
O=c1cc(-n2c(/C=C/c3ccccc3)nc3sc4c(c3c2=O)CCCC4)[nH]c(=O)[nH]1	67.2
O=c1c2c3c(sc2nc(/C=C/c2ccccc2)n1-c1nc2ccccc2s1)CCCC3	10.6
Cc1ccc2sc(-n3c(/C=C/c4ccccc4)nc4sc5c(c4c3=O)CCCC5)nc2c1	36.7
O=c1c2c3c(sc2nc(/C=C/c2ccccc2)n1-c1nc2cc([N+](=O)[O-])ccc2s1)CCCC3	10.3
O=c1[nH]c(/C=C/c2ccccc2)nc2sc3c(c12)CCCC3	12
O=c1[nH]c(/C=C/c2ccccc2[N+](=O)[O-])nc2sc3c(c12)CCCC3	11.9
C/C(=C\c1ccccc1)c1nc2sc3c(c2c(=O)[nH]1)CCCC3	33.2
COc1cc(-c2nc(NC(=O)NO)c3c4c(sc3n2)CCCC4)cc(OC)c1OC	2.32
O=C(NO)Nc1nc(/C=C/c2ccccc2)nc2sc3c(c12)CCCC3	3.27
Cc1c2ccc(N)cc2nc2cc(Nc3nc(/C=C/c4ccccc4)nc4sc5c(c34)CCCC5)ccc12	1.36
COc1cccc2c1C(=O)c1c(O)c3c(c(O)c1C2=O)C[C@@](O)(C(=O)CO)C[C@@H]3O[C@H]1C[C@H](N)[C@H](O)[C@H](C)O1 [DOXORUBICIN]	7.36

Tested on: MCF7
Assay: Cytotoxicity against human MCF7 cells assessed as cell survival after 48 hrs by SRB assay
Assay type: functional, cell-based
Conditions: MCF7, 48 h

SMILES	IC50 [µM]
O=C(O)C(Cc1ccccc1)n1c(/C=C/c2ccccc2)nc2sc3c(c2c1=O)CCCC3 (centres undefined)	45.3
O=C(O)C(Cc1cc2ccccc2[nH]1)n1c(/C=C/c2ccccc2)nc2sc3c(c2c1=O)CCCC3 (centres undefined)	> 202
O=C1NOCC1n1c(/C=C/c2ccccc2)nc2sc3c(c2c1=O)CCCC3 (centres undefined)	39.4
O=c1cc(-n2c(/C=C/c3ccccc3)nc3sc4c(c3c2=O)CCCC4)[nH]c(=O)[nH]1	11.2
O=c1c2c3c(sc2nc(/C=C/c2ccccc2)n1-c1nc2ccccc2s1)CCCC3	4.3
Cc1ccc2sc(-n3c(/C=C/c4ccccc4)nc4sc5c(c4c3=O)CCCC5)nc2c1	15.8
O=c1c2c3c(sc2nc(/C=C/c2ccccc2)n1-c1nc2cc([N+](=O)[O-])ccc2s1)CCCC3	1.23
O=c1[nH]c(/C=C/c2ccccc2)nc2sc3c(c12)CCCC3	28.2
O=c1[nH]c(/C=C/c2ccccc2[N+](=O)[O-])nc2sc3c(c12)CCCC3	11.9
C/C(=C\c1ccccc1)c1nc2sc3c(c2c(=O)[nH]1)CCCC3	24.8
COc1cc(-c2nc(NC(=O)NO)c3c4c(sc3n2)CCCC4)cc(OC)c1OC	14.2
O=C(NO)Nc1nc(/C=C/c2ccccc2)nc2sc3c(c12)CCCC3	6.54
Cc1c2ccc(N)cc2nc2cc(Nc3nc(/C=C/c4ccccc4)nc4sc5c(c34)CCCC5)ccc12	0.58
